Results taken from PubChem BioAssay AID248 (DTP/NCI, 2004).
Several values for one entry are separate records, joined by “and”; a condition that tells them apart may be missing. Equal entries are not always repeated. Toxic doses and inconclusive results are not listed. Rule as the data show it: active = T/C of 150% or more; inactive = T/C below 125%.

Tested on: L1210 leukemia ip in BDF1 mice, survival T/C
Experiment: NCI In Vivo Anticancer Drug Screen. Data for tumor model L1210 Leukemia (intraperitoneal) in B6D2F1 (BDF1) mice
Details: endpoint: mean survival time, higher = longer survival
How it was run: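 Mice bearing the transplanted tumor received compound or vehicle. Survival of the treated group was divided by that of the vehicle-treated control group to give the ratio.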

[1] = dose: 6.25 mg/kg/injection, schedule: Q01DX009 (ip), vehicle: saline with Tween-80
[2] = dose: 12.5 mg/kg/injection, schedule: Q01DX009 (ip), vehicle: saline with Tween-80
[3] = dose: 25.0 mg/kg/injection, schedule: Q01DX009 (ip), vehicle: saline with Tween-80
[4] = dose: 100.0 mg/kg/injection, schedule: Q01DX001 (ip), vehicle: saline
[5] = dose: 200.0 mg/kg/injection, schedule: Q01DX001 (ip), vehicle: saline
[6] = dose: 50.0 mg/kg/injection, schedule: Q04DX002 (ip), vehicle: saline with Tween-80
[7] = dose: 100.0 mg/kg/injection, schedule: Q04DX002 (ip), vehicle: saline with Tween-80
[8] = dose: 100.0 mg/kg/injection, schedule: Q04DX002 (ip), vehicle: Klucel (hydroxypropylcellulose) (HPC)
[9] = dose: 200.0 mg/kg/injection, schedule: Q04DX002 (ip), vehicle: Klucel (hydroxypropylcellulose) (HPC)
[10] = dose: 400.0 mg/kg/injection, schedule: Q04DX002 (ip), vehicle: Klucel (hydroxypropylcellulose) (HPC)
[11] = dose: 100.0 mg/kg/injection, schedule: Q01DX001 (ip), vehicle: carboxymethylcellulose (CMC)
[12] = dose: 200.0 mg/kg/injection, schedule: Q01DX001 (ip), vehicle: carboxymethylcellulose (CMC)
[13] = dose: 400.0 mg/kg/injection, schedule: Q01DX001 (ip), vehicle: carboxymethylcellulose (CMC)

Measured: T/C

NC(=NCCO)C(N)=NCCO
inactive: dose: 100.0 mg/kg/injection, schedule: Q01DX009 (ip), vehicle: saline 102 % of control | dose: 100.0 mg/kg/injection, schedule: Q04DX003 (ip), vehicle: saline 96 % of control | dose: 200.0 mg/kg/injection, schedule: Q01DX009 (ip), vehicle: saline 94 % of control | dose: 200.0 mg/kg/injection, schedule: Q04DX003 (ip), vehicle: saline 96 % of control | dose: 400.0 mg/kg/injection, schedule: Q01DX009 (ip), vehicle: saline 94 % of control | dose: 400.0 mg/kg/injection, schedule: Q04DX003 (ip), vehicle: saline 100 % of control

Cn1c2nc(=O)n(-c3ccccc3)c(=O)c-2nc2c1CCCC2
inactive: [1] 110 % of control | [2] 106 % of control | [3] 101 % of control | dose: 50.0 mg/kg/injection, schedule: Q01DX009 (ip), vehicle: saline with Tween-80 103 % of control | dose: 100.0 mg/kg/injection, schedule: Q01DX009 (ip), vehicle: saline with Tween-80 105 % of control | dose: 200.0 mg/kg/injection, schedule: Q01DX009 (ip), vehicle: saline with Tween-80 100 % of control

COc1ccc(OC)c2c(=O)cc(C(=O)O)[nH]c12
inactive: dose: 50.0 mg/kg/injection, schedule: Q01DX001 (ip), vehicle: saline 98 % of control | [4] 97 % of control | [5] 95 % of control

COC1CCC2CCN(C)C(Cc3ccc(Oc4ccc(CC5C6CC(OC)CCC6CCN5C)cc4)cc3)C2C1 (stereo not drawn)
inactive: dose: 0.39 mg/kg/injection, schedule: Q01DX009 (ip), vehicle: saline with Tween-80 96 % of control | dose: 0.78 mg/kg/injection, schedule: Q01DX009 (ip), vehicle: saline with Tween-80 96 % of control and 108 % of control | dose: 1.56 mg/kg/injection, schedule: Q01DX009 (ip), vehicle: saline with Tween-80 108 % of control | dose: 3.13 mg/kg/injection, schedule: Q01DX009 (ip), vehicle: saline with Tween-80 102 % of control

CC1CN1C1=C(Br)C(=O)C(N2CC2C)=C(Br)C1=O (stereo not drawn)
inactive: dose: 1.56 mg/kg/injection, schedule: Q01DX009 (ip), vehicle: Klucel (hydroxypropylcellulose) (HPC) 95 % of control | dose: 1.56 mg/kg/injection, schedule: Q04DX003 (ip), vehicle: saline with Tween-80 98 % of control | dose: 3.12 mg/kg/injection, schedule: Q01DX009 (ip), vehicle: Klucel (hydroxypropylcellulose) (HPC) 98 % of control | dose: 3.12 mg/kg/injection, schedule: Q04DX003 (ip), vehicle: saline with Tween-80 104 % of control | dose: 6.25 mg/kg/injection, schedule: Q01DX009 (ip), vehicle: Klucel (hydroxypropylcellulose) (HPC) 95 % of control | dose: 6.25 mg/kg/injection, schedule: Q04DX003 (ip), vehicle: saline with Tween-80 98 % of control | dose: 12.5 mg/kg/injection, schedule: Q01DX009 (ip), vehicle: Klucel (hydroxypropylcellulose) (HPC) 90 % of control | dose: 12.5 mg/kg/injection, schedule: Q04DX003 (ip), vehicle: saline with Tween-80 95 % of control | dose: 25.0 mg/kg/injection, schedule: Q04DX003 (ip), vehicle: saline with Tween-80 98 % of control

Cc1cc(C(=O)C(=O)OC(c2ccccc2)c2ccccc2)c(CN2C(=O)c3ccccc3C2=O)c(=O)n1C
inactive: dose: 25.0 mg/kg/injection, schedule: Q04DX002 (ip), vehicle: saline with Tween-80 101 % of control | [6] 108 % of control | [7] 108 % of control

O=C(COc1ccccc1)Nc1ccc([N+](=O)[O-])cc1O
inactive: dose: 100.0 mg/kg/injection, schedule: Q04DX003 (ip), vehicle: Klucel (hydroxypropylcellulose) (HPC) 97 % of control | dose: 200.0 mg/kg/injection, schedule: Q04DX003 (ip), vehicle: Klucel (hydroxypropylcellulose) (HPC) 100 % of control | dose: 400.0 mg/kg/injection, schedule: Q04DX003 (ip), vehicle: Klucel (hydroxypropylcellulose) (HPC) 103 % of control

CC(C)(C(=O)O)C(=O)O
inactive: [4] 103 % of control | [5] 106 % of control

COc1ccc(NC(=O)NO)cc1
inactive: [6] 108 % of control | [7] 101 % of control | dose: 200.0 mg/kg/injection, schedule: Q04DX002 (ip), vehicle: saline with Tween-80 108 % of control

COC(=O)c1ccccc1N1C(=O)C=CC1=O
inactive: [1] 97 % of control | [2] 98 % of control | [3] 103 % of control

O=C(COc1ccc(Cl)cc1Cl)Nc1ccc(S(=O)(=O)O)cc1
inactive: [8] 92 % of control | [9] 111 % of control | [10] 103 % of control

CCOC=Nc1cc(-n2cnc3c(Cl)ncnc32)ccc1C
inactive: [11] 87 % of control | [12] 98 % of control | [13] 96 % of control

O=S(=O)(Cc1ccccc1)C(I)c1ccccc1 (stereo not drawn)
inactive: [8] 108 % of control | [9] 122 % of control | [10] 105 % of control

Oc1cc(O)c(CN2CCOCC2)c(O)c1CN1CCOCC1
inactive: dose: 100.0 mg/kg/injection, schedule: Q01DX001 (ip), vehicle: other 98 % of control | dose: 200.0 mg/kg/injection, schedule: Q01DX001 (ip), vehicle: other 100 % of control | dose: 400.0 mg/kg/injection, schedule: Q01DX001 (ip), vehicle: other 95 % of control

COc1ccc(Cl)cc1C/C=N/NC(=O)C[N+](C)(C)C
inactive: dose: 75.0 mg/kg/injection, schedule: Q01DX001 (ip), vehicle: saline 92 % of control

CC(Br)(C(CC(=O)C1CC1)c1ccccc1)[N+](=O)[O-] (stereo not drawn)
inactive: dose: 25.0 mg/kg/injection, schedule: Q01DX009 (ip), vehicle: other 93 % of control | dose: 25.0 mg/kg/injection, schedule: Q04DX003 (ip), vehicle: other 100 % of control | dose: 50.0 mg/kg/injection, schedule: Q01DX001 (ip), vehicle: carboxymethylcellulose (CMC) 108 % of control | dose: 50.0 mg/kg/injection, schedule: Q01DX009 (ip), vehicle: other 89 % of control and 90 % of control | dose: 50.0 mg/kg/injection, schedule: Q04DX003 (ip), vehicle: other 96 % of control | [11] 90 % of control | dose: 100.0 mg/kg/injection, schedule: Q01DX009 (ip), vehicle: other 91 % of control | dose: 100.0 mg/kg/injection, schedule: Q04DX003 (ip), vehicle: other 93 % of control and 103 % of control | [12] 92 % of control | [13] 95 % of control

Cc1ccc(S(=O)(=O)NC(=O)NCCCS(C)=O)cc1 (stereo not drawn)
inactive: dose: 100.0 mg/kg/injection, schedule: Q04DX003 (ip), vehicle: saline with Tween-80 100 % of control | dose: 200.0 mg/kg/injection, schedule: Q04DX003 (ip), vehicle: saline with Tween-80 102 % of control | dose: 400.0 mg/kg/injection, schedule: Q04DX003 (ip), vehicle: saline with Tween-80 100 % of control
